Measurements as given in ChEMBL document CHEMBL4270577, “Synthesis, anticancer activity and molecular modeling studies of 1,2,4-triazole derivatives as EGFR inhibitors” (Eur J Med Chem, 2018).
pIC50: −log10 of the molar value.

What was measured:
786-0 = test: Growth inhibition of human 786-0 cells at 10 uM incubated for 48 hrs by sulforhodamine B assay relative to control; format: functional; conditions: 786-0, 48 h, read-out: GI
SF-539 = test: Growth inhibition of human SF539 cells at 10 uM incubated for 48 hrs by sulforhodamine B assay relative to control; format: functional; conditions: SF-539, 48 h, read-out: GI
MIA PaCa-2 = test: Antiproliferative activity against human MIAPaCa2 cells after 48 hrs by propidium iodide staining-based fluorometric analysis; format: functional, cell-based; conditions: MIA PaCa-2, 48 h
NCI-H522 = test: Growth inhibition of human NCI-H522 cells at 10 uM incubated for 48 hrs by sulforhodamine B assay relative to control; format: functional; conditions: NCI-H522, 48 h, read-out: GI
SW-620 = test: Growth inhibition of human SW620 cells at 10 uM incubated for 48 hrs by sulforhodamine B assay relative to control; format: functional; conditions: SW-620, 48 h, read-out: GI
HCC 2998 = test: Growth inhibition of human HCC2998 cells at 10 uM incubated for 48 hrs by sulforhodamine B assay relative to control; format: functional; conditions: HCC 2998, 48 h, read-out: GI
HCT-116 = test: Growth inhibition of human HCT116 cells at 10 uM incubated for 48 hrs by sulforhodamine B assay relative to control; format: functional; conditions: HCT-116, 48 h, read-out: GI
LOX IMVI = test: Growth inhibition of human LOXIMVI cells at 10 uM incubated for 48 hrs by sulforhodamine B assay relative to control; format: functional; conditions: read-out: GI
A498 = test: Growth inhibition of human A498 cells at 10 uM incubated for 48 hrs by sulforhodamine B assay relative to control; format: functional; conditions: A498, 48 h, read-out: GI
COLO 205 = test: Growth inhibition of human COLO205 cells at 10 uM incubated for 48 hrs by sulforhodamine B assay relative to control; format: functional; conditions: COLO 205, 48 h, read-out: GI
TK-10 = test: Growth inhibition of human TK10 cells at 10 uM incubated for 48 hrs by sulforhodamine B assay relative to control; format: functional; conditions: TK-10, 48 h, read-out: GI
K562 = test: Growth inhibition of human K562 cells at 10 uM incubated for 48 hrs by sulforhodamine B assay relative to control; format: functional; conditions: K562, 48 h, read-out: GI
MCF7 = test: Growth inhibition of human MCF7 cells at 10 uM incubated for 48 hrs by sulforhodamine B assay relative to control; format: functional; conditions: MCF7, 48 h, read-out: GI
NCI-H460 = test: Growth inhibition of human NCI-H460 cells at 10 uM incubated for 48 hrs by sulforhodamine B assay relative to control; format: functional; conditions: NCI-H460, 48 h, read-out: GI
SK-OV-3 = test: Growth inhibition of human SKOV3 cells at 10 uM incubated for 48 hrs by sulforhodamine B assay relative to control; format: functional; conditions: SK-OV-3, 48 h, read-out: GI
NCI/ADR-RES = test: Growth inhibition of human NCI/ADR-RES cells at 10 uM incubated for 48 hrs by sulforhodamine B assay relative to control; format: functional; conditions: read-out: GI
SNB-75 = test: Growth inhibition of human SNB75 cells at 10 uM incubated for 48 hrs by sulforhodamine B assay relative to control; format: functional; conditions: SNB-75, 48 h, read-out: GI
Malme-3M = test: Growth inhibition of human MALME-3M cells at 10 uM incubated for 48 hrs by sulforhodamine B assay relative to control; format: functional; conditions: read-out: GI
NCI-H23 = test: Growth inhibition of human NCI-H23 cells at 10 uM incubated for 48 hrs by sulforhodamine B assay relative to control; format: functional; conditions: NCI-H23, 48 h, read-out: GI
RPMI-8226 = test: Growth inhibition of human RPMI8226 cells at 10 uM incubated for 48 hrs by sulforhodamine B assay relative to control; format: functional; conditions: RPMI-8226, 48 h, read-out: GI
UACC-257 = test: Growth inhibition of human UACC257 cells at 10 uM incubated for 48 hrs by sulforhodamine B assay relative to control; format: functional; conditions: UACC-257, 48 h, read-out: GI
HT-29 = test: Antiproliferative activity against human HT-29 cells after 48 hrs by propidium iodide staining-based fluorometric analysis; format: functional, cell-based; conditions: HT-29, 48 h
IGROV-1 = test: Growth inhibition of human IGROV1 cells at 10 uM incubated for 48 hrs by sulforhodamine B assay relative to control; format: functional; conditions: IGROV-1, 48 h, read-out: GI
HOP-62 = test: Growth inhibition of human HOP62 cells at 10 uM incubated for 48 hrs by sulforhodamine B assay relative to control; format: functional; conditions: HOP-62, 48 h, read-out: GI
HOP-92 = test: Growth inhibition of human HOP92 cells at 10 uM incubated for 48 hrs by sulforhodamine B assay relative to control; format: functional; conditions: HOP-92, 48 h, read-out: GI
M14 = test: Growth inhibition of human M14 cells at 10 uM incubated for 48 hrs by sulforhodamine B assay relative to control; format: functional; conditions: M14, 48 h, read-out: GI
UO-31 = test: Growth inhibition of human UO31 cells at 10 uM incubated for 48 hrs by sulforhodamine B assay relative to control; format: functional; conditions: UO-31, 48 h, read-out: GI
HCT-15 = test: Growth inhibition of human HCT15 cells at 10 uM incubated for 48 hrs by sulforhodamine B assay relative to control; format: functional; conditions: HCT-15, 48 h, read-out: GI
NCI-H322M = test: Growth inhibition of human NCI-H322M cells at 10 uM incubated for 48 hrs by sulforhodamine B assay relative to control; format: functional; conditions: read-out: GI
MDA-MB-435 = test: Growth inhibition of human MDA-MB-435 cells at 10 uM incubated for 48 hrs by sulforhodamine B assay relative to control; format: functional; conditions: MDA-MB-435, 48 h, read-out: GI
NCI-H226 = test: Growth inhibition of human NCI-H226 cells at 10 uM incubated for 48 hrs by sulforhodamine B assay relative to control; format: functional; conditions: NCI-H226, 48 h, read-out: GI
Hs-578T = test: Growth inhibition of human Hs 578T cells at 10 uM incubated for 48 hrs by sulforhodamine B assay relative to control; format: functional; conditions: read-out: GI
OVCAR-4 = test: Growth inhibition of human OVCAR4 cells at 10 uM incubated for 48 hrs by sulforhodamine B assay relative to control; format: functional; conditions: OVCAR-4, 48 h, read-out: GI
SF-268 = test: Growth inhibition of human SF268 cells at 10 uM incubated for 48 hrs by sulforhodamine B assay relative to control; format: functional; conditions: SF-268, 48 h, read-out: GI
U-251 = test: Growth inhibition of human U251 cells at 10 uM incubated for 48 hrs by sulforhodamine B assay relative to control; format: functional; conditions: U-251, 48 h, read-out: GI
SK-MEL-2 = test: Growth inhibition of human SK-MEL-2 cells at 10 uM incubated for 48 hrs by sulforhodamine B assay relative to control; format: functional; conditions: SK-MEL-2, 48 h, read-out: GI

Row | Compound | pIC50 (MIA PaCa-2) | inhibition of growth at 10 µM (NCI-H522) [%] | inhibition of growth at 10 µM (SW-620) [%] | inhibition of growth at 10 µM (HCT-116) [%] | inhibition of growth at 10 µM (LOX IMVI) [%] | inhibition of growth at 10 µM (A498) [%] | inhibition of growth at 10 µM (COLO 205) [%] | inhibition of growth at 10 µM (K562) [%] | inhibition of growth at 10 µM (MCF7) [%] | inhibition of growth at 10 µM (NCI-H460) [%] | inhibition of growth at 10 µM (NCI/ADR-RES) [%] | inhibition of growth at 10 µM (SNB-75) [%] | inhibition of growth at 10 µM (NCI-H23) [%] | inhibition of growth at 10 µM (RPMI-8226) [%] | inhibition of growth at 10 µM (UACC-257) [%] | pIC50 (HT-29) | inhibition of growth at 10 µM (HOP-62) [%] | inhibition of growth at 10 µM (HOP-92) [%] | inhibition of growth at 10 µM (M14) [%] | inhibition of growth at 10 µM (UO-31) [%] | also measured
1 | COc1ccc(-c2nc3sc(-c4ccc(Cl)cc4)cn3n2)cc1 | 5.59 | 39 | 40.4 | -16 | 45.8 | -25.8 | 47.5 | 38.5 | 51.1 | -39 | 54.4 | -1.66 | 41.5 | 55.1 | 15.4 | 5.62 | 60.4 | 79.5 | 9 | -7.46 | inhibition of growth at 10 µM (786-0): -75.8%; inhibition of growth at 10 µM (SF-539): 84.6%; inhibition of growth at 10 µM (HCC 2998): 21.4%; inhibition of growth at 10 µM (TK-10): -30.8%; inhibition of growth at 10 µM (SK-OV-3): 50.5%; inhibition of growth at 10 µM (Malme-3M): 49.2%; inhibition of growth at 10 µM (IGROV-1): 92.9%; inhibition of growth at 10 µM (HCT-15): 28%; inhibition of growth at 10 µM (NCI-H322M): 82.2%; inhibition of growth at 10 µM (MDA-MB-435): 25%; inhibition of growth at 10 µM (NCI-H226): 49.9%; inhibition of growth at 10 µM (Hs-578T): 73%; inhibition of growth at 10 µM (OVCAR-4): -63.3%; inhibition of growth at 10 µM (SF-268): 34.9%; inhibition of growth at 10 µM (U-251): -67.9%
2 | c1ccc(-c2nc3sc(-c4ccccc4)cn3n2)cc1 | 5.04 | 19 | 5 | 11 | 16 | 13 | 5 | 11 | 61 | 6 | 14 | 15 | 16 | 14 | 13 | 5.08 | 33 | 25 | 13 | 53 | inhibition of growth at 10 µM (SK-MEL-2): 5%; inhibition of growth at 10 µM (SK-OV-3): 5%; inhibition of growth at 10 µM (IGROV-1): 43%; inhibition of growth at 10 µM (HCT-15): 8%; inhibition of growth at 10 µM (NCI-H322M): 11%; inhibition of growth at 10 µM (NCI-H226): 27%; inhibition of growth at 10 µM (Hs-578T): 9%; inhibition of growth at 10 µM (OVCAR-4): 23%; inhibition of growth at 10 µM (SF-268): 7%; inhibition of growth at 10 µM (U-251): 6%
3 | COc1ccc(-c2nc3sc(-c4ccccc4)cn3n2)cc1 | 5.31 | 70 | 64 | 60 | 45 | 56 | 63 | 76 | 74 | 65 | 66 | 34 | 28 | 21 | 28 | 5.18 | 49 | 32 | 71 | 38 | inhibition of growth at 10 µM (786-0): 11%; inhibition of growth at 10 µM (SF-539): 24%; inhibition of growth at 10 µM (HCC 2998): 22%; inhibition of growth at 10 µM (SK-MEL-2): 40%; inhibition of growth at 10 µM (SK-OV-3): 32%; inhibition of growth at 10 µM (Malme-3M): 32%; inhibition of growth at 10 µM (IGROV-1): 52%; inhibition of growth at 10 µM (HCT-15): 69%; inhibition of growth at 10 µM (NCI-H322M): 14%; inhibition of growth at 10 µM (MDA-MB-435): -8.6%; inhibition of growth at 10 µM (NCI-H226): 23%; inhibition of growth at 10 µM (Hs-578T): 40%; inhibition of growth at 10 µM (OVCAR-4): 37%; inhibition of growth at 10 µM (SF-268): 28%; inhibition of growth at 10 µM (U-251): 21%
4 | COc1cc(-c2nc3sc(-c4ccccc4)cn3n2)cc(OC)c1OC | 5.33 | 30 | 6 | 40 | 33 | 29 | 15 | 39 | 23 | 18 | 39 | 24 | 17 | 42 | 10 | 5.31 | 15 | 50 | 25 | 43 | inhibition of growth at 10 µM (786-0): 14%; inhibition of growth at 10 µM (SF-539): 15%; inhibition of growth at 10 µM (TK-10): 6%; inhibition of growth at 10 µM (SK-MEL-2): 20%; inhibition of growth at 10 µM (HCT-15): 42%; inhibition of growth at 10 µM (NCI-H322M): 7%; inhibition of growth at 10 µM (MDA-MB-435): 16%; inhibition of growth at 10 µM (NCI-H226): 23%; inhibition of growth at 10 µM (Hs-578T): 26%; inhibition of growth at 10 µM (OVCAR-4): 17%; inhibition of growth at 10 µM (SF-268): 9%; inhibition of growth at 10 µM (U-251): 32%
5 | Clc1ccc(-c2cn3nc(-c4ccccc4)nc3s2)cc1 | 5.19 | 29 | 13 | 41 | 19 | 52 | 18 | 24 | 35 | 37 | 34 | 36 | 33 | 10 | 15 | 5.23 | 40 | 53 | 15 | 40 | inhibition of growth at 10 µM (786-0): 53%; inhibition of growth at 10 µM (SF-539): 21%; inhibition of growth at 10 µM (HCC 2998): 10%; inhibition of growth at 10 µM (TK-10): 18%; inhibition of growth at 10 µM (SK-OV-3): 64%; inhibition of growth at 10 µM (Malme-3M): 10%; inhibition of growth at 10 µM (IGROV-1): 55%; inhibition of growth at 10 µM (HCT-15): 9%; inhibition of growth at 10 µM (NCI-H322M): 20%; inhibition of growth at 10 µM (MDA-MB-435): 11%; inhibition of growth at 10 µM (NCI-H226): 32%; inhibition of growth at 10 µM (Hs-578T): 40%; inhibition of growth at 10 µM (OVCAR-4): 60%; inhibition of growth at 10 µM (SF-268): 20%; inhibition of growth at 10 µM (U-251): 25%
